One experiment has as its target T1, CRF1R (Homo sapiens, UniProt P34998).
T1 sequence (P34998 24-415): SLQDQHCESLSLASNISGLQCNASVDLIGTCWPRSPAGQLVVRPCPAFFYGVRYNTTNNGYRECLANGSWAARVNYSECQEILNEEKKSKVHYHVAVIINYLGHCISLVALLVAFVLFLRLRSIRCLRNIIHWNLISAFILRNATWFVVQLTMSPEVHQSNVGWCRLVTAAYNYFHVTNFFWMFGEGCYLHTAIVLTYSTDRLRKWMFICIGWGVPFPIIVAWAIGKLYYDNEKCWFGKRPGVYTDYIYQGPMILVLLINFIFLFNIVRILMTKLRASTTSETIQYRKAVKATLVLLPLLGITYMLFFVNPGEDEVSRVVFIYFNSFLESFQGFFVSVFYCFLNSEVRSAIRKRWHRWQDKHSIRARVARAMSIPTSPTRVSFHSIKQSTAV
Put plainly: CRF1R agonist activation (EC50 / Emax), called comparative CRF binding. Format: cell-based. The note with it: for Emax: read-out: CRF1R Emax; for EC50: read-out: CRF1R EC50. A digest of the protocol:
(§1)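 Receptor-expressing cells are contacted with test peptide or the vehicle it is dissolved in. Lysates are then assayed for cAMP, or expression of a CRE-coupled reporter is quantitated. Engineered cells carrying receptor-G-protein fusions may replace full-length receptors.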

A further experiment has as its target T2, CRF2R (Homo sapiens, UniProt Q13324).
T2 sequence (Q13324 1-411): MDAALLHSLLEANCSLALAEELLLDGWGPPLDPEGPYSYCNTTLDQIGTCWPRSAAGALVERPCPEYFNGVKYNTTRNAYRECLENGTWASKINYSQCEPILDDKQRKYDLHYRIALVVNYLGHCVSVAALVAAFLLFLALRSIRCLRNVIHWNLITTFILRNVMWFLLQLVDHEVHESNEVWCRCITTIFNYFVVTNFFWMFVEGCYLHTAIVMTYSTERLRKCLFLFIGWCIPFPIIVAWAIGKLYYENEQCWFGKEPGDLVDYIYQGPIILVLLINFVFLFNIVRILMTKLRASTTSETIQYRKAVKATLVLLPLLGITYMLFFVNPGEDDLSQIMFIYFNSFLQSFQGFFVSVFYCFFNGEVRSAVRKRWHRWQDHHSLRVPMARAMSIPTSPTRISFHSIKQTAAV
Put plainly: CRF2R agonist activation (EC50 / Emax), called comparative CRF binding. Format: cell-based. The note with it: for Emax: read-out: CRF2R Emax; for EC50: read-out: CRF2R EC50. The essentials: as §1

Peptide text beside a SMILES is read from it.

As a reminder, the Emax is the size of the effect at its maximum, as opposed to the concentration needed. For `CC[C@H](C)[C@H](N)C(=O)N[C@H](C(=O)N[C@@H](CC(C)C)C(=O)N[C@@H](CO)C(=O)N[C@@H](CC(C)C)C(=O)N[C@@H](CC(=O)O)C(=O)N[C@H](C(=O)N1CCC[C@H]1C(=O)N[C@H](C(=O)NCC(=O)N[C@@H](CC(C)C)C(=O)N[C@@H](CC(C)C)C(=O)N[C@@H](CCC(N)=O)C(=O)N[C@H](C(=O)N[C@@H](CC(C)C)C(=O)N[C@@H](CC(C)C)C(=O)N[C@@H](CCC(=O)O)C(=O)N[C@@H](CCC(N)=O)C(=O)N[C@@H](CCC(=O)O)C(=O)N[C@@H](CCCNC(=N)N)C(=O)N[C@@H](CCC(N)=O)C(=O)N[C@@H](CCC(=O)O)C(=O)N[C@@H](C)C(=O)N[C@@H](C)C(=O)N[C@@H](CCCNC(=N)N)C(=O)N[C@@H](CCC(=O)O)C(=O)N[C@@H](CCC(N)=O)C(=O)N[C@@H](C)C(=O)N[C@H](C(=O)N[C@H](C(=O)N[C@@H](CC(N)=O)C(=O)N[C@@H](C)C(=O)N[C@@H](CCCNC(=N)N)C(=O)N[C@H](C(=O)N[C@@H](CC(C)C)C(=O)N[C@@H](C)C(=O)N[C@@H](CCCNC(=N)N)C(=O)N[C@H](C(N)=O)C(C)C)[C@@H](C)CC)[C@@H](C)O)[C@@H](C)O)[C@@H](C)CC)[C@@H](C)CC)C(C)C)C(C)C` [compound 118] (H-IVLSLDVPIGLLQILLEQERQEAAREQATTNARILARV-NH2; N-terminus assumed), the maximum response (Emax) at CRF1R came out at 5%; at CRF2R, 100%.
As usually defined, the EC50 is the midpoint of the concentration-response curve. With `CC[C@H](C)[C@H](N)C(=O)N[C@H](C(=O)N[C@@H](CC(C)C)C(=O)N[C@@H](CO)C(=O)N[C@@H](CC(C)C)C(=O)N[C@@H](CC(=O)O)C(=O)N[C@H](C(=O)N1CCC[C@H]1C(=O)N[C@H](C(=O)NCC(=O)N[C@@H](CC(C)C)C(=O)N[C@@H](CC(C)C)C(=O)N[C@@H](CCC(N)=O)C(=O)N[C@H](C(=O)N[C@@H](CC(C)C)C(=O)N[C@@H](CC(C)C)C(=O)N[C@@H](CCC(=O)O)C(=O)N[C@@H](CCC(N)=O)C(=O)N[C@@H](CCC(=O)O)C(=O)N[C@@H](CCCNC(=N)N)C(=O)N[C@@H](C)C(=O)N[C@@H](CCCNC(=N)N)C(=O)N[C@@H](C)C(=O)N[C@@H](C)C(=O)N[C@@H](CCCNC(=N)N)C(=O)N[C@@H](CCC(=O)O)C(=O)N[C@@H](CCC(N)=O)C(=O)N[C@@H](C)C(=O)N[C@H](C(=O)N[C@H](C(=O)N[C@@H](CC(N)=O)C(=O)N[C@@H](C)C(=O)N[C@@H](CCCNC(=N)N)C(=O)N[C@H](C(=O)N[C@@H](CC(C)C)C(=O)N[C@@H](C)C(=O)N[C@@H](CCCNC(=N)N)C(=O)N[C@H](C(N)=O)C(C)C)[C@@H](C)CC)[C@@H](C)O)[C@@H](C)O)[C@@H](C)CC)[C@@H](C)CC)C(C)C)C(C)C` [compound 119] (H-IVLSLDVPIGLLQILLEQERARAAREQATTNARILARV-NH2; N-terminus assumed), on CRF1R, the EC50 is more than 0.1 µM and the maximum response (Emax) worked out at 3%. Besides, on CRF2R, the concentration giving a half-maximal response (EC50) was found to be 0.00357 µM and the Emax was 95%.
For `CC[C@H](C)[C@H](N)C(=O)N[C@H](C(=O)N[C@@H](CC(C)C)C(=O)N[C@@H](CO)C(=O)N[C@@H](CC(C)C)C(=O)N[C@@H](CCC(=O)O)C(=O)N[C@H](C(=O)N1CCC[C@H]1C(=O)N[C@H](C(=O)NCC(=O)N[C@@H](CC(C)C)C(=O)N[C@@H](CC(C)C)C(=O)N[C@@H](CCC(N)=O)C(=O)N[C@H](C(=O)N[C@@H](CC(C)C)C(=O)N[C@@H](CC(C)C)C(=O)N[C@@H](CCC(=O)O)C(=O)N[C@@H](CCC(N)=O)C(=O)N[C@@H](C)C(=O)N[C@@H](CCCNC(=N)N)C(=O)N[C@@H](C)C(=O)N[C@@H](CCCNC(=N)N)C(=O)N[C@@H](C)C(=O)N[C@@H](C)C(=O)N[C@@H](CCCNC(=N)N)C(=O)N[C@@H](CCC(=O)O)C(=O)N[C@@H](CCC(N)=O)C(=O)N[C@@H](C)C(=O)N[C@H](C(=O)N[C@H](C(=O)N[C@@H](CC(N)=O)C(=O)N[C@@H](C)C(=O)N[C@@H](CCCNC(=N)N)C(=O)N[C@H](C(=O)N[C@@H](CC(C)C)C(=O)N[C@@H](C)C(=O)N[C@@H](CCCNC(=N)N)C(=O)N[C@H](C(N)=O)C(C)C)[C@@H](C)CC)[C@@H](C)O)[C@@H](C)O)[C@@H](C)CC)[C@@H](C)CC)C(C)C)C(C)C` [compound 120] (H-IVLSLEVPIGLLQILLEQARARAAREQATTNARILARV-NH2; N-terminus assumed) the same measures were not below 0.1 µM, 7%, 0.0699 µM and 100%.
For the compound `CC[C@H](C)[C@H](N)C(=O)N[C@H](C(=O)N[C@@H](CC(C)C)C(=O)N[C@@H](CO)C(=O)N[C@@H](CC(C)C)C(=O)N[C@@H](CC(=O)O)C(=O)N[C@H](C(=O)N1CCC[C@H]1C(=O)N[C@H](C(=O)NCC(=O)N[C@@H](CC(C)C)C(=O)N[C@@H](CC(C)C)C(=O)N[C@@H](CCC(N)=O)C(=O)N[C@H](C(=O)N[C@@H](CC(C)C)C(=O)N[C@@H](CC(C)C)C(=O)N[C@@H](CCC(=O)O)C(=O)N[C@@H](CCC(N)=O)C(=O)N[C@@H](C)C(=O)N[C@@H](CCCNC(=N)N)C(=O)N[C@@H](C)C(=O)N[C@@H](CCC(=O)O)C(=O)N[C@@H](C)C(=O)N[C@@H](C)C(=O)N[C@@H](CCCNC(=N)N)C(=O)N[C@@H](CCC(=O)O)C(=O)N[C@@H](CCC(N)=O)C(=O)N[C@@H](C)C(=O)N[C@H](C(=O)N[C@H](C(=O)N[C@@H](CC(N)=O)C(=O)N[C@@H](C)C(=O)N[C@@H](CCCNC(=N)N)C(=O)N[C@H](C(=O)N[C@@H](CC(C)C)C(=O)N[C@@H](C)C(=O)N[C@@H](CCCNC(=N)N)C(=O)N[C@H](C(N)=O)C(C)C)[C@@H](C)CC)[C@@H](C)O)[C@@H](C)O)[C@@H](C)CC)[C@@H](C)CC)C(C)C)C(C)C` [compound 122] (H-IVLSLDVPIGLLQILLEQARAEAAREQATTNARILARV-NH2; N-terminus assumed), the Emax came to 10.7% on CRF1R and 97% at CRF2R.
On the same counts, the results for `CC[C@H](C)[C@H](N)C(=O)N[C@H](C(=O)N[C@@H](CC(C)C)C(=O)N[C@@H](CO)C(=O)N[C@@H](CC(C)C)C(=O)N[C@@H](CC(=O)O)C(=O)N[C@H](C(=O)N1CCC[C@H]1C(=O)N[C@H](C(=O)NCC(=O)N[C@@H](CC(C)C)C(=O)N[C@@H](CC(C)C)C(=O)N[C@@H](CCC(N)=O)C(=O)N[C@H](C(=O)N[C@@H](CC(C)C)C(=O)N[C@@H](CC(C)C)C(=O)N[C@@H](CCC(=O)O)C(=O)N[C@@H](CCC(N)=O)C(=O)N[C@@H](C)C(=O)N[C@@H](CCCNC(=N)N)C(=O)N[C@@H](CCC(N)=O)C(=O)N[C@@H](CCC(=O)O)C(=O)N[C@@H](C)C(=O)N[C@@H](C)C(=O)N[C@@H](CCCNC(=N)N)C(=O)N[C@@H](CCC(=O)O)C(=O)N[C@@H](CCC(N)=O)C(=O)N[C@@H](C)C(=O)N[C@H](C(=O)N[C@H](C(=O)N[C@@H](CC(N)=O)C(=O)N[C@@H](C)C(=O)N[C@@H](CCCNC(=N)N)C(=O)N[C@H](C(=O)N[C@@H](CC(C)C)C(=O)N[C@@H](C)C(=O)N[C@@H](CCCNC(=N)N)C(=O)N[C@H](C(N)=O)C(C)C)[C@@H](C)CC)[C@@H](C)O)[C@@H](C)O)[C@@H](C)CC)[C@@H](C)CC)C(C)C)C(C)C` [compound 123] (H-IVLSLDVPIGLLQILLEQARQEAAREQATTNARILARV-NH2; N-terminus assumed) are 9.6% and 93.8%.
As to `CC[C@H](C)[C@H](N)C(=O)N[C@H](C(=O)N[C@@H](CC(C)C)C(=O)N[C@@H](CO)C(=O)N[C@@H](CC(C)C)C(=O)N[C@@H](CC(=O)O)C(=O)N[C@H](C(=O)N1CCC[C@H]1C(=O)N[C@H](C(=O)NCC(=O)N[C@@H](CC(C)C)C(=O)N[C@@H](CC(C)C)C(=O)N[C@@H](CCC(N)=O)C(=O)N[C@H](C(=O)N[C@@H](CC(C)C)C(=O)N[C@@H](CC(C)C)C(=O)N[C@@H](CCC(=O)O)C(=O)N[C@@H](CCC(N)=O)C(=O)N[C@@H](C)C(=O)N[C@@H](CCCCN)C(=O)N[C@@H](CCC(N)=O)C(=O)N[C@@H](CCC(=O)O)C(=O)N[C@@H](C)C(=O)N[C@@H](C)C(=O)N[C@@H](CCCNC(=N)N)C(=O)N[C@@H](CCC(=O)O)C(=O)N[C@@H](CCC(N)=O)C(=O)N[C@@H](C)C(=O)N[C@H](C(=O)N[C@H](C(=O)N[C@@H](CC(N)=O)C(=O)N[C@@H](C)C(=O)N[C@@H](CCCNC(=N)N)C(=O)N[C@H](C(=O)N[C@@H](CC(C)C)C(=O)N[C@@H](C)C(=O)N[C@@H](CCCNC(=N)N)C(=O)N[C@H](C(N)=O)C(C)C)[C@@H](C)CC)[C@@H](C)O)[C@@H](C)O)[C@@H](C)CC)[C@@H](C)CC)C(C)C)C(C)C` [compound 124] (H-IVLSLDVPIGLLQILLEQAKQEAAREQATTNARILARV-NH2; N-terminus assumed), at CRF1R, the EC50 is more than 0.1 µM and the Emax is 6%. In addition, at CRF2R, the EC50 came out at 0.00349 µM and the Emax amounted to 94%.

(Values after patent publication US6936585B2, “Corticotropin releasing factor 2 receptor agonists” (priority 2002, dated 2005).)
